Results on 19 compounds are retold here after US20230391786A1, “cGAS INHIBITORS” (Eli Lilly and Company, priority 2022, published 2023).

The test system of experiment [1] is cGAS activity in THP1 cells (IFNb as marker). The experiment in a line: Cellular assay to measure cGAS activity (IFNb production in PMA-differentiated THP1 cells stimulated by RDG-Adenovirus-GFP). It counts as cell-based, human. The note with it: Homo sapiens, THP-1, THP1 cells, PMA differentiated, RDG-Adenovirus-GFP 1000 MOI, IFNb AlphaLISA, overnight incubation; read-out: IC50 (μM), Cellular assay for Compounds 95-348. The method, boiled down: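 The readout is secreted IFNb measured by AlphaLISA after overnight compound exposure. THP1 cells, differentiated with PMA for 24 h and rested overnight, were infected with RDG-Adenovirus-GFP (1000 MOI, 4 h) before compounds were added; IC50 came from a 4-parameter logistic fit of inhibition against log concentration.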
(In Alpha technology, singlet oxygen from a donor bead excites a nearby acceptor bead.)

A further experiment addresses recombinant human cGAS (Homo sapiens (Human), UniProt Q8N884). In words: In vitro inhibition assay of cGAS activity (cGAMP production, RapidFire mass spectrometry). Format: biochemical. The note with it: 10 nM recombinant human cGAS, 60 nM 75-bp dsDNA, ATP, GTP, room temperature 3 hours, read-out: IC50 (μM), In vitro inhibition assay for Compounds 95-348. The method, boiled down: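 Product cGAMP was quantified by RapidFire MS against a difluoro-cGAMP internal standard after a formic acid quench. The reaction contained 10 nM recombinant full-length human cGAS, 75-bp dsDNA (60 nM), ATP and GTP (50 μM) and ran for 3 h at room temperature. IC50 values came from 4-parameter nonlinear regression.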

Chain of recombinant human cGAS (Q8N884 whole entry): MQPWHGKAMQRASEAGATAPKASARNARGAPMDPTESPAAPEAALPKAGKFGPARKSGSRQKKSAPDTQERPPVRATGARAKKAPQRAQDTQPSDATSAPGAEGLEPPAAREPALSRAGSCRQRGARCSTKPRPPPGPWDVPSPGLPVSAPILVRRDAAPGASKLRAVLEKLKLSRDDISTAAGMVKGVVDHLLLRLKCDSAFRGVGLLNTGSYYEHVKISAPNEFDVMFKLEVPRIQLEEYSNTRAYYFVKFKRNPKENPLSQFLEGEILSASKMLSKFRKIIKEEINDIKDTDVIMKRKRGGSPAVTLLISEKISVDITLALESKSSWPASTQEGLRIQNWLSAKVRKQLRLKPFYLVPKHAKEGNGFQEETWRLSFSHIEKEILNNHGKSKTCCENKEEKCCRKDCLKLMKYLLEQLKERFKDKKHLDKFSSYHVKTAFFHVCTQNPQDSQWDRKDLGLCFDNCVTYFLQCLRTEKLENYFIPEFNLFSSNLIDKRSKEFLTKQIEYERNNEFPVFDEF

As to `O=C(O)[C@@H]1CCCN1C(=O)c1[nH]c2c(Cl)c(Cl)ccc2c1-c1cn[nH]c1` [Example 258, (2 S)-1-[6,7-Dichloro-3-(1H-pyrazol-4-yl)-1H-indole-2-carbonyl]pyrrolidine-2-carb oxylic acid], the IC50 was over 10 µM in experiment [1] and 0.0757 µM at recombinant human cGAS.

`CC(=O)N1CCn2c(c(-c3cn[nH]c3)c3c(NC(=O)C(F)F)cc(Cl)c(Cl)c32)C1` [Example 263, N-[2-Acetyl-6,7-dichloro-10-(1H-pyrazol-4-yl)-3,4-dihydro-1H-pyrazino[1,2-a]indol-9-yl]-2,2-difluoro-acetamide]: the IC50 is 0.509 µM in experiment [1] and 0.0173 µM on recombinant human cGAS.

For the compound `O=C(Cc1ccn[nH]1)N1CCn2c(c(-c3cn[nH]c3)c3ccc(Cl)c(Cl)c32)C1` [Example 266, 1-[6,7-Dichloro-10-(1H-pyrazol-4-yl)-3,4-dihydro-1H-pyrazino[1,2-a]indol-2-yl]-2-(1H-pyrazol-5-yl)ethanone], the results for the IC50 (in experiment [1]; on recombinant human cGAS) were 9.93 µM and 0.0401 µM, respectively.

`O=C(Cc1cnccn1)N1CCn2c(c(-c3cn[nH]c3)c3ccc(Cl)c(Cl)c32)C1` [Example 267, 1-[6,7-Dichloro-10-(1H-pyrazol-4-yl)-3,4-dihydro-1H-pyrazino[1,2-a]indol-2-yl]-2-pyrazin-2-yl-ethanone]: the IC50 in experiment [1] is 6.27 µM; at recombinant human cGAS it was 0.0399 µM.

With `CC(=O)N1CCn2c(c(-c3cn[nH]c3)c3c(OCC(N)=O)cc(Cl)c(Cl)c32)C1` [Example 268, 2-[[2-Acetyl-6,7-dichloro-10-(1H-pyrazol-4-yl)-3,4-dihydro-1H-pyrazino[1,2-a]indol-9-yl]oxy]acetamide], the IC50 in experiment [1] turned out to be 5.87 µM; at recombinant human cGAS, 0.0385 µM.

`NC(=O)COc1cc(Cl)c(Cl)c2c1c(-c1cn[nH]c1)c1n2CCN(C(=O)CO)C1` [Example 269, 2-[[6,7-Dichloro-2-(2-hydroxyacetyl)-10-(1H-pyrazol-4-yl)-3,4-dihydro-1H-pyrazino[1,2-a]indol-9-yl]oxy]acetamide]: the results for the IC50 (in experiment [1]; on recombinant human cGAS) were over 10 µM and 0.0306 µM, respectively.

Turning to `O=C(Nc1cc(Cl)c(Cl)c2c1c(-c1cn[nH]c1)c1n2CCN(C(=O)CO)C1)C(F)F` [Example 272, N-[6,7-Dichloro-2-(2-hydroxyacetyl)-10-(1H-pyrazol-4-yl)-3,4-dihydro-1H-pyrazino[1,2-a]indol-9-yl]-2,2-difluoro-acetamide], the IC50 in experiment [1] was determined as 0.412 µM; on recombinant human cGAS, 0.0202 µM.

As for `O=C(Nc1cc(Cl)c(Cl)c2c1c(-c1cn[nH]c1)c1n2CCN(C(=O)[C@@H]2COCCO2)C1)C(F)F` [Example 273, N-[6,7-Dichloro-2-[(2 S)-1,4-dioxane-2-carbonyl]-10-(1H-pyrazol-4-yl)-3,4-dihydro-1H-pyrazino[1,2-a]indol-9-yl]-2,2-difluoro-acetamide], the IC50 came out at 0.56 µM in experiment [1] and 0.0206 µM on recombinant human cGAS.

Take `O=C(Nc1cc(Cl)c(Cl)c2c1c(-c1cn[nH]c1)c1n2CCN(C(=O)CN2CCOC2=O)C1)C(F)F` [Example 274, N-[6,7-Dichloro-2-[2-(2-oxooxazolidin-3-yl)acetyl]-10-(1H-pyrazol-4-yl)-3,4-dihydro-1H-pyrazino[1,2-a]indol-9-yl]-2,2-difluoro-acetamide]: the results for the IC50 (in experiment [1]; at recombinant human cGAS) were 3.55 µM and 0.023 µM, respectively.

For `CN(C)C(=O)CCC(=O)N1CCn2c(c(-c3cn[nH]c3)c3c(NC(=O)C(F)F)cc(Cl)c(Cl)c32)C1` [Example 275, 4-[6,7-Dichloro-9-[(2,2-difluoroacetyl)amino]-10-(1H-pyrazol-4-yl)-3,4-dihydro-1H-pyrazino[1,2-a]indol-2-yl]-N,N-dimethyl-4-oxo-butanamide], the figures for the IC50 (in experiment [1]; at recombinant human cGAS) were 4.01 µM and 0.0284 µM, respectively.

With `O=C1CC(CC(=O)N2CCn3c(c(-c4cn[nH]c4)c4c(NC(=O)C(F)F)cc(Cl)c(Cl)c43)C2)CCN1` (centres unmarked) [Example 276, N-[6,7-Dichloro-2-[2-(2-oxo-4-piperidyl)acetyl]-10-(1H-pyrazol-4-yl)-3,4-dihydro-1H-pyrazino[1,2-a]indol-9-yl]-2,2-difluoro-acetamide], the values for the IC50 (in experiment [1]; at recombinant human cGAS) were over 10 µM and 0.0405 µM, respectively.

In the case of `O=C(Nc1cc(Cl)c(Cl)c2c1c(-c1cn[nH]c1)c1n2CCN(C(=O)Cc2cnccn2)C1)C(F)F` [Example 277, N-[6,7-Dichloro-2-(2-pyrazin-2-ylacetyl)-10-(1H-pyrazol-4-yl)-3,4-dihydro-1H-pyrazino[1,2-a]indol-9-yl]-2,2-difluoro-acetamide], the IC50 in experiment [1] was determined as 1.58 µM; at recombinant human cGAS, 0.0445 µM.

In the case of `OC1Cc2c(-c3cn[nH]c3)c3ccc(Cl)c(Cl)c3n2C1` (centres unmarked) [Example 278, 5,6-Dichloro-9-(1H-pyrazol-4-yl)-2,3-dihydro-1H-pyrrolo[1,2-a]indol-2-ol], the IC50 came to 2.19 µM in experiment [1] and 0.0391 µM on recombinant human cGAS.

On to `COCC(=O)N1CCn2c(c(-c3cn[nH]c3)c3c(OCC#N)cc(Cl)c(Cl)c32)C1` [Example 279, 2-((6,7-Dichloro-2-(2-methoxyacetyl)-10-(1H-pyrazol-4-yl)-1,2,3,4-tetrahydropyrazino[1,2-a]indol-9-yl)oxy)acetonitrile], for which the IC50 in experiment [1] was 0.74 µM; on recombinant human cGAS, 0.0072 µM.

`CC(=O)N1CCn2c(c(-c3cn[nH]c3)c3c(OCC#N)cc(Cl)c(Cl)c32)C1` [Example 280, 2-((2-Acetyl-6,7-dichloro-10-(1H-pyrazol-4-yl)-1,2,3,4-tetrahydropyrazino[1,2-a]indol-9-yl)oxy)acetonitrile]: the IC50 in experiment [1] came to 0.872 µM; on recombinant human cGAS, 0.0087 µM.

As to `CN1CCO[C@@H](C(=O)N2CCn3c(c(-c4cn[nH]c4)c4c(OCC#N)cc(Cl)c(Cl)c43)C2)C1` [Example 281, (R)-2-((6,7-Dichloro-2-(4-methylmorpholine-2-carbonyl)-10-(1H-pyrazol-4-yl)-1,2,3,4-tetrahydropyrazino[1,2-a]indol-9-yl)oxy)acetonitrile], the IC50 in experiment [1] came to 1 µM; at recombinant human cGAS, 0.0089 µM.

Consider `Cc1nc(C(=O)N2CCn3c(c(-c4cn[nH]c4)c4c(OCC#N)cc(Cl)c(Cl)c43)C2)no1` [Example 282, 2-((6,7-Dichloro-2-(5-methyl-1,2,4-oxadiazole-3-carbonyl)-10-(1H-pyrazol-4-yl)-1,2,3,4-tetrahydropyrazino[1,2-a]indol-9-yl)oxy)acetonitrile], for which the IC50 came out at 2.99 µM in experiment [1] and 0.00896 µM at recombinant human cGAS.

For the compound `Cn1cnc(C(=O)N2CCn3c(c(-c4cn[nH]c4)c4c(OCC#N)cc(Cl)c(Cl)c43)C2)n1` [Example 283, 2-((6,7-Dichloro-2-(1-methyl-1H-1,2,4-triazole-3-carbonyl)-10-(1H-pyrazol-4-yl)-1,2,3,4-tetrahydropyrazino[1,2-a]indol-9-yl)oxy)acetonitrile], the IC50 amounted to 4.27 µM in experiment [1] and 0.0106 µM on recombinant human cGAS.

As to `N#CCOc1cc(Cl)c(Cl)c2c1c(-c1cn[nH]c1)c1n2CCN(C(=O)CN2CCOC2=O)C1` [Example 284, 2-((6,7-Dichloro-2-(2-(2-oxooxazolidin-3-yl)acetyl)-10-(1H-pyrazol-4-yl)-1,2,3,4-tetrahydropyrazino[1,2-a]indol-9-yl)oxy)acetonitrile], the IC50 in experiment [1] amounted to 9.75 µM; on recombinant human cGAS, 0.0124 µM.

One may read the IC50 as the concentration that gives 50% inhibition.
